Measurements as given in US20100324285A1, “ANTIINFLAMMATORY AGENT COMPRISING 2-AMINOPHENOL OR DERIVATIVE THEREOF AS ACTIVE INGREDIENT” (priority 2006, published 2010).

What was measured:
β-hexosaminidase = test: Direct inhibition of β-hexosaminidase activity of whole granule extract; format: biochemical, rat; details: 40 μM added
Procedure: Separately, the whole granule extract described above was injected into a 96-well microplate by 50 μl per well. Each well was admixed with 50 μl of 0.1 M citrate buffer (pH 4.5) containing 1 mM PNAC and warmed at 37° C. for one hour. The reaction was stopped by adding 50 μl of 0.1 M sodium carbonate (pH 10.5), measuring the absorbance at 405 to 650 nm. As control, the same measurement as described above was carried out using BSA-containing Siraganian buffer alone. […] The resultant data was obtained by averaging the measurement values from 3 wells each of the test sample or the whole granule extract.

[1] = system: NHDF, normal fibroblast from human fetus; test: Cytopathic test, alamar Blue; format: cell-based; details: 6 days; for Cell survival rate (%), AA-2G free: no AA-2G; for Cell survival rate (%), AA-2G addition: with AA-2G
Procedure: Cells were cultured with test samples and D-MEM medium supplemented with 10 (v/v) % FCS with or without AA-2G for 6 days by the same method as above, and the supernatant was removed, washed with phosphate buffered saline (PBS(−)), and admixed with alamar Blue (commercialized by TREK Diagnostic Systems, Inc.), which had been diluted by 10-fold with D-MEM medium in a volume of 200 μl per well. After culturing at 37° C. for 90 minutes, the fluorescence intensity (exciting light: 544 nm, fluorescence: 590 nm) was measured. The cell survival rate (%) was calculated by dividing the fluorescence intensity of a well with a test sample by the fluorescence intensity of a well with a control sample, and multiplying by 100.

RBL-2H3 = test: Degranulation reaction of basocyte (β-hexosaminidase release); format: cell-based, rat
Procedure: Degranulation rate (%) and inhibition rate of degranulation (%) were calculated based on the measurements of β-hexosaminidase activity in the granules released from the cells by degranulation reaction.
Rat cancer cells from basocyte RBL-2H3(catalognumber“JCRB0023”, commercialized by Health Science Research Resources Bank of Japan Health Sciences Foundation), known to be degranulated by cross-linkage of IgE, were used after cultured in a MEM medium (commercialized by Nissui Pharmaceutical Co., Ltd.) supplemented with 10% (v/v) FCS.
The above cells were recovered from a flask by conventional trypsin-EDTA treatment, then suspended in a MEM medium supplemented with 10% (v/v) FCS to give a cell concentration of 5×10^5 cells/ml. The suspension was inoculated to a 24-well microplate in a volume of 400 μl per well, cultured in a 5% (v/v) carbon dioxide incubator for 3 to 5 hours, then admixed with 0.625 μg/ml of anti dinitrophenol (hereinafter abbreviated as “DNP”) mouse IgE (commercialized by Sigma-Aldrich, Inc., diluted by MEM medium supplied with 10% (v/v) FCS) in a volume of 100 μl per well to sensitize the cells by IgE (a final concentration of the anti DNP-IgE was 0.125 μg/ml). After the cells were cultured in the 5% (v/v) carbon dioxide incubator overnight, the supernatant was removed by suction, and then each well was washed twice with Siraganian buffer (119 mM NaCl, 5 mM KCl, 0.4 mM MgCl2, 25 mM piperazine-N,N″-bis(2-ethane sulfonic acid) (PIPES), 40 mM NaOH, pH 7.2) by 500 μl per well. After admixed with Siraganian buffer containing 0.1% bovine serum albumin (BSA), 5.6 mM glucose and 1 mM CaCl2 (hereinafter described as “BSA-containing Siraganian buffer) in a volume of 160 μl per well, the microplate was warmed at 37° C. for 15 minutes. As test samples, 2-aminophenoxazine-3-one (questiomycin A), arbutin having skin-whitening effect and oxatomide used as therapeutic agents for allergic diseases (positive control) were diluted with BSA-containing Siraganian buffer to give the concentrations shown in Table 3, any of the test samples was added by 20 μl per well, then the microplate was warmed at 37° C. for 15 minutes (wells with the test samples). The well with any of the test samples was admixed with DNP-albumin (commercialized by Sigma-Aldrich, Inc.) diluted with BSA-containing Siraganian buffer to give a concentration of 50 μg/ml by 20 μl per well, and warmed at 37° C. for 15 minutes. After the 24-well microplate was cooled on ice for 10 minutes, the supernatant was collected and 100 μl thereof was injected into a 96-well microplate to measure the β-hexosaminidase activity in the supernatant. As negative control, BL-2H3 cells were cultured and treated in the same way as the wells admixed with the test samples except for that FCS-supplemented MEM medium containing no antibody was used, and the β-hexosaminidase activity in the supernatant was measured (the well without IgE sensitization). After the supernatants were removed from some of the wells without IgE sensitization, the wells were washed twice with BSA-containing Siraganian buffer and admixed with BSA-containing Siraganian buffer by 200 μl per well. The cells were broken by twice repeating freezing at −80° C. and thawing, whole medium containing the broken cells was collected, centrifuged at 1,500 rpm for 10 minutes, and then 100 μl of the supernatant was injected into a 96-well microplate to measure the β-hexosaminidase activity of the whole granule extract.
Each well of the 96-well microplate injected with any of the supernatant from the wells with the test samples, the supernatant from the wells without IgE sensitization or the whole granule extract described above was admixed with 50 μl of citrate buffer (pH 4.5) containing 1 mM 4-nitrophenyl-N-acetyl-β-glucosaminide (PNAG) as substrate, kept at 37° C. for 1 hour, and then the reaction was stopped by adding 50 μl of 0.1 M sodium carbonate (pH 10.5). […]

iNOS = test: Amount of iNOS in cell extracts, western blotting; format: cell-based, mouse; details: RAW264.7 cell extracts of Experiment 2, anti-iNOS antibody
Procedure: In addition, the amount of iNOS in the cell extracts of this experiment was measured by western blotting analysis using an anti-iNOS antibody.

Nc1cc2nc3ccccc3oc-2cc1=O [2-Aminophenoxazine-3-one, 2-aminophenoxazine-3-one]
inhibition rate of β-hexosaminidase activity (β-hexosaminidase): −9.9% | Cell survival rate (%), AA-2G free ([1]; QA 0.125 μM): 101% | Cell survival rate (%), AA-2G addition ([1]; QA 0.125 μM): 100% | Cell survival rate (%), AA-2G free ([1]; QA 0.25 μM): 103% | Cell survival rate (%), AA-2G addition ([1]; QA 0.25 μM): 100% | Cell survival rate (%), AA-2G free ([1]; QA 0.5 μM): 99% | Cell survival rate (%), AA-2G addition ([1]; QA 0.5 μM): 92% | Cell survival rate (%), AA-2G free ([1]; QA 1.0 μM): 92% | Cell survival rate (%), AA-2G addition ([1]; QA 1.0 μM): 79% | Cell survival rate (%), AA-2G free ([1]; QA 2.0 μM): 88% | Cell survival rate (%), AA-2G addition ([1]; QA 2.0 μM): 73% | inhibition at 0.63 µM (RBL-2H3; Rattus norvegicus, RBL-2H3, 0.63 μM, read-out: Inhibition intensity of degranulation): -30 to 30% | inhibition at 5 µM (RBL-2H3; Rattus norvegicus, RBL-2H3, 5 μM, read-out: Inhibition intensity of degranulation): 30 to 50% | inhibition at 10 µM (RBL-2H3; Rattus norvegicus, RBL-2H3, 10 μM, read-out: Inhibition intensity of degranulation): ≥ 50% | inhibition at 23 µM (RBL-2H3; Rattus norvegicus, RBL-2H3, 23 μM, read-out: Inhibition intensity of degranulation): ≥ 50% | inhibition at 31.3 µM (RBL-2H3; Rattus norvegicus, RBL-2H3, 31.3 μM, read-out: Inhibition intensity of degranulation): ≥ 50% | inhibition at 40 µM (RBL-2H3; Rattus norvegicus, RBL-2H3, 40 μM, read-out: Inhibition intensity of degranulation): ≥ 50% | concentration at which inhibiting activity on degranulation was exerted (RBL-2H3; summary of Table 3): ≥ 5 µM | amount of iNOS (iNOS): decreased depending on the 2-aminophenoxazine-3-one concentration
